Test results published in patent publication US20240122938A1, “METHODS AND COMPOSITIONS FOR TREATING UVEAL MELANOMA” (INSERM (INSTITUT NATIONAL DE LA SANTÉ ET DE LA RECHERCHE …, priority 2019, published 2024).

Key:
Assay type in all cases: cell-based, human
[1] = test system: CDK4, p27 and p21 in Mel270 cells; assay: Western blot of cell cycle proteins
Protocol: (§1) Western blotting was performed as previously described 25,26. Briefly, cell lysates (30 μg) were separated using SDS-PAGE, transferred onto a PVDF membrane and subsequently exposed to the appropriate antibodies, anti-BCL2 (ms-123-PO) was from neomarker, anti-caspase 3 (#610323) was from BD, anti-BAX (#8429) was from sigma, anti-PARP (#9542), anti-BCL-XL (#2762), anti-caspase 9 (#9502) and anti-PUMA (#4976) were from Cell Signaling Technology Inc, anti-MCL1 (#sc-819), anti-NOXA (#56169), and anti-HSP90 (#sc-13119) were from Santa Cruz biotechnology. The proteins were visualized using the ECL system (Amersham). The western blots shown are representative of at least 3 independent experiments.

NOXA in primary cells = assay: Protein immunoblot of BCL-2 family members; conditions: 24 h of treatment
Protocol: as §1, with “(Amersham).” for “(Amersham). The western blots shown are representative of at least 3 independent experiments.”

[2] = test system: BCL-2 family members in metastatic OMM1 cells; assay: Protein immunoblot of BCL-2 family members
Protocol: as §1, with “(Amersham).” for “(Amersham). The western blots shown are representative of at least 3 independent experiments.”

SMILES: CC1(C)CCC(c2ccc(Cl)cc2)=C(CN2CCN(c3ccc(C(=O)NS(=O)(=O)c4ccc(N[C@H](CCN5CCOCC5)CSc5ccccc5)c(S(=O)(=O)C(F)(F)F)c4)cc3)CC2)C1 [ABT-263, 4-[4-[[2-(4-chlorophenyl)-5,5-dimethyl-1-cyclohexen-1-yl]methyl]-1-piperazinyl]-N-[[4-[[(1R)-3-(4-morpholinyl)-1-[(phenylthio)methyl]propyl]amino]-3-[(trifluoromethyl)sulfonyl]phenyl]sulfonyl]-benzamide]
- cell cycle (reduced CDK4, increased p27 and p21) [1]: cell cycle arrest
- change in BCL-2 family proteins (NOXA in primary cells): increase in pro-apoptotic NOXA level
- BCL2 level ([2]; cell line not given): no change
- expression of BCL-xL, MCL1, PUMA, BAX ([2]; metastatic OMM1 cells only): reduced expression
